Measured values taken from patent EP0029363A1, “Pyrazole derivatives, process for their preparation and pharmaceutical compositions containing them” (MORISHITA PHARMACEUTICAL CO. LTD., priority 1979, dated 1981).
Read-outs that look alike come from different tables or passages of the source.

Columns and labels:
male SD rats [1] = assay: Pharmacological test against hypercholesterolemia (high cholesterol diet rats); assay type: in vivo; conditions: high cholesterol diet for 7 days, oral 200 mg/kg/day for 7 consecutive days, blood after 20 hours of fasting; for Reduction Percentage Cholesterol in beta-lipoprotein: beta-lipoprotein-cholesterol (heparin-calcium precipitation); for Reduction Percentage Cholesterol: serum cholesterol
Source text: Three groups of male SD rats each weighing about 150g, each group consisting of five rats, were used as test animals and one group consisting of 10 rats was used as control. All animals were fed a high cholesterol diet consisted of 1% cholesterol, 0.2% sodium cholate, 5% olive oil and commercial diet up to total 100% for 7 days. The test compounds of the present invention and clofibrate, as a medicine for comparison, were respectively dissolved or dispersed in an aqueous 1% solution of CMC so that the volume of the solution or dispersion administered each time to an animal was 0.5 ml/l00g body weight, and the solution or dispersion was orally administered so that the amount of administration each time of each pyrazole derivative or of clofibrate was 200 mg/kg body weight. Administration was carried out once a day for 7 consecutive days. Water was taken ad lib. After 20 hours of fasting from the last administration, a blood sample was taken from each animal by amputation of the carotid artery, and the serum separated was frozen until the analysis of cholesterol shown as follows:
The content of serum cholesterol was determined by the above-mentioned method. The beta-lipoprotein- cholesterol was determined by "heparin-calcium precipitation method". The reduction percentage of cholesterol in serum and beta-lipoprotein were calculated in the same manner as above.

male SD rats [2] = assay: Pharmacological test against hypertriglyceridemia (fructose-loaded rats, serum lipid analysis); assay type: in vivo; conditions: Rattus norvegicus, rats given aqueous 10% fructose for 2 days, oral, three doses, total dose 300 mg/kg as free carboxylic acid (total dose 300, esters 324-329 mg/kg), blood 48 hours after start
Source text: Seven groups of male SD rats, each group consisting of 6 animals, were used as test animals and one group consisting of 12 animals was used as a control. The test groups were made hypertriglyceridemic by administering aqueous 10% by weight solution of fructose for 2 days, while the animals of the control group were given tap water. The administration to the test groups of six pyrazole derivatives and of nicotinic acid was as follows:
Each pyrazole derivative and nicotinic acid was separately dissolved or dispersed in an aqueous 1% solution of carboxymethylcellulose (CMC) at a predetermined concentration, and the thus prepared solution or dispersion was orally administered in three doses, each dose having a volume of 0.5 ml/100 g body weight, a first dose just after the commencement of the test, a second dose 24 hours after the first dose, and a third dose 18 hours after the second dose. The total dosage of each compound was such that each animal received 300 mg/kg of each compound as free carboxylic acid. The rats of the control group were given the aqueous l% solution of CMC only, in three doses at the same intervals as the test groups. All the groups were fed with the same diet during the test period.
After 48 hours of the commencement of the test, a blood sample was collected from each animal by amputation of the carotid artery, and serum was separated from the blood sample and frozen to be kept until lipid analysis.
Serum triglyceride was determined by Acetylacetone Method, and the reduction percentage of lipid was calculated on the basis of the following formula: [formula] wherein the reduction percentage is the average for the test animals in each group.
The content of serum cholesterol was determined by an enzymatic method using cholesteroloxidase, and the reduction percentage of cholesterol was calculated according to the following formula: [formula]

Acute toxicity, oral = conditions: mouse, in vivo, male ICR mice, in aqueous 1% CMC, roughly calculated from mortalities at 2.5 and 5.0 g/kg body weight
Method: The acute toxicity of the present pyrazole derivatives to mammals was determined by the following method.
Male ICR mice of body weight 21 to 25 g were divided into several groups each consisting of 8 animals and were fasted for 17 to 18 hours and then orally given a pyrazole derivative or nicotinic acid dissolved or dispersed in an aqueous 1% CMC solution at a rate of 0.2 ml/10 g body weight. The administered amount of each compound was 2.5 g/kg body weight or 5.0 g/kg, and from the mortalities at both levels, LD50 was roughly calculated and compared with LD50 of nicotinic acid.

[3] = serum cholesterol, read-out: Reduction Percentage Cholesterol
[4] = serum triglyceride, read-out: Reduction Percentage Triglyceride

| SMILES | Reduction Percentage Cholesterol in beta-lipoprotein (male SD rats [1]) | Reduction Percentage Cholesterol (male SD rats [1]) | inhibition in vivo at 300 mg/kg (male SD rats [2]; [3]) [%] | inhibition in vivo at 300 mg/kg (male SD rats [2]; [4]) [%] | LD50 (Acute toxicity, oral) [mg/kg] |
| --- | --- | --- | --- | --- | --- |
| CCCCCCCCCCCCCc1cc(C(=O)O)nn1C [1-methyl-5-n-tridecylpyrazole-3-carboxylic acid] | 57.3 | 60.1 | 61.2 | 75.9 | – |
| CCCCCCCCCCCCCCCc1cc(C(=O)OCC)n[nH]1 [ethyl 5-n-pentadecylpyrazole-3-carboxylate] | – | – | 34.1 | 67.8 | – |
| CCCCCCCCCCCCCCCc1cc(C(=O)O)n[nH]1 [5-n-pentadecylpyrazole-3-carboxylic acid] | – | – | 32.1 | 62.8 | – |
| CCCCCCCCCCCCCCCCCc1cc(C(=O)OCC)n[nH]1 [ethyl 5-n-heptadecylpyrazole-3-carboxylate] | – | – | 32.9 | 35.2 | – |
| CCCCCCCCCCCCCc1cc(C(=O)O)n[nH]1 [5-n-tridecylpyrazole-3-carboxylic acid] | 54.3 | 45.2 | 59.8 | 76.4 | – |
| CCCCCCCCCCCCCc1cc(C(=O)OCC)n[nH]1 [ethyl 5-n-tridecylpyrazole-3-carboxylate] | – | – | 65.1 | 88 | – |
| CCCCCCCCCCCCCCCCCc1cc(C(=O)O)n[nH]1 [5-n-heptadecylpyrazole-3-carboxylic acid] | – | – | 24.5 | 30.5 | – |
| CCCCCCCCCCCCCc1cc(C(=O)NCC(=O)OCC)n[nH]1 [3-N-ethoxycarbonylmethylcarbamoyl-5-n-tridecylpyrazole] | 32.7 | 48.6 | 34.8 | 81.4 | – |
| CCCCCCCCCCCCCc1cc(CO)n[nH]1 [3-hydroxymethyl-5-n-tridecylpyrazole] | 25.2 | 52.7 | 55.8 | 78.2 | – |
| O=C(O)c1cccnc1 [Nicotinic acid, reference compound] | – | – | 16.4 | 24.1 | 4500 |
